Assay results: paper PMC12516686, “Design of 2‑Aminobenzothiazole Derivatives Targeting Trypanosomatid PTR1 by a Multidisciplinary Fragment Hybridization Approach” (Journal of Medicinal Chemistry, 2025)
“And” between values parts separate entries of the source, which are not always exact repeats. Equal values may be shown once. Read-outs that look alike come from different tables or passages of the source.

Tests used:
LmPTR1 = target: T1, LmPTR1 (Leishmania major, UniProt Q01782); test: LmPTR1 indirect (cytochrome c-coupled) enzyme assay; type: biochemical; conditions: for IC50: indirect assay, triplicate, SD within ± 10% of the value
T1 sequence (Q01782 1-288): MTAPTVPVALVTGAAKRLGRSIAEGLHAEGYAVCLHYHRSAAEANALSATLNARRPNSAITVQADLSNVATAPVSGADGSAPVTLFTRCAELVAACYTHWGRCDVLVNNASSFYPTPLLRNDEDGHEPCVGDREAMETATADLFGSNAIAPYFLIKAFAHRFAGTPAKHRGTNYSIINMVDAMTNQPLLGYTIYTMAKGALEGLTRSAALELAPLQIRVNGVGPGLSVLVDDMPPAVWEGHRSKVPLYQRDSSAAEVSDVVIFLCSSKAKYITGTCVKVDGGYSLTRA
Method: The in vitro assays used in the current study were based on those reported in the literature. As PTR1 enzymes use dihydrobiopterin (H2B) as a substrate and also require NADPH for the reaction, the reduction of H2B to tetrahydrobiopterin by PTR1 is nonenzymatically linked with the reduction of cytochrome c in this assay, which is detected at 550 nm. The formation of cyt c Fe^2+ results in an increase in the photometric readout. TbPTR1 and LmPTR1 activity was assayed in a buffer containing 20 mM sodium citrate (pH 6.0). The final reaction mixture contained the test compound at a range of concentrations and TbPTR1/LmPTR1 (6.0 nM/12 nM), H2B (0.3 μM/3 μM), cytochrome c (100 μM/100 μM), and NADPH (500 μM/500 μM). The final assay volume was 50 μL in 384-well clear plates (Greiner Bio-One, 781101). Compound screening was performed by the addition of the compound to the assay plates (in 100% DMSO), followed by the addition of 45 μL Reaction Mix (enzyme, H2B cytochrome c in 20 mM sodium citrate buffer). A pre-read was made at 550 nm using an EnVision Multilabel Reader 2103 (PerkinElmer Inc., US), followed by incubation of the assay plates at 30 °C for 10 min. The reaction was initiated by the addition of 5 μL of NADPH (5 mM in ultrapure water) followed by kinetically reading the assay plates at 550 nm using the EnVision Multilabel Reader at 10, 20, 30, 40, and 50 min. The slope of each assay well was calculated. The screening data were analyzed using ActivityBase (IDBS), and for outlier elimination in the control wells, the 3-σ method was applied. Based on the slope, the data were normalized to the positive control methotrexate for TbPTR1/LmPTR1 (1 μM/50 μM, yielding 100% inhibition) and negative controls (1% DMSO, yielding 0% inhibition), and % inhibition was calculated for all samples. The measurement at time 0 min was used to flag optically interfering samples. Each compound was tested in triplicate, and the pIC50 value, standard deviation, Hill slope, and minimum and maximum signals for each dose–response curve were obtained using a 4-parameter logistic fit in the XE module of Activity Base (IDBS), as also reported previously. ,

[1] = Cytotoxicity assay (MTT) on THP-1-derived macrophages; type: cell-based, Human; conditions: human, THP-1-derived macrophages
Method: Human leukemia cell line THP-1 (ATCC TIB202) cells were cultured in RPMI-1640 medium supplemented with 10% heat-inactivated fetal bovine serum (FBS), 2 mM L-glutamine, 100 IU/mL penicillin/streptomycin, and 20 mM HEPES. The cell line was maintained in a humidified incubator at 37 °C with 5% CO2. Subcultures were performed every 3 days in 20 mL of media at a concentration of 2 × 10^5 cells/mL in a T75 flask. All cell culture reagents were purchased from Lonza Bioscience (Morrisville, NC).
The cytotoxicity of the compounds on THP-1-derived macrophages was assessed using the colorimetric MTT assay (3-(4,5-dimethylthiazol-2-yl)-2,5-diphenyl tetrazolium bromide) as described elsewhere. THP-1 cells were suspended in RPMI complete medium at a density of 1 × 10^6 cells/mL, and 100 μL/well was seeded in a 96-well plate. The cells were differentiated into macrophages by adding 40 ng/mL of phorbol-myristate 13-acetate (PMA, Sigma, Saint Louis, MI, USA) for 24 h, followed by replacement with fresh medium for another 24 h. Subsequently, the cells were incubated with 100 μL of compounds, ranging from 100 to 12.5 μM, diluted in RPMI complete medium. Each condition was tested in triplicate. After 72 h of incubation at 37 °C with 5% CO2, the medium was removed, and 200 μL of 0.5 mg/mL MTT solution diluted in RPMI was added. The plates were incubated for an additional 4 h, after which 160 μL of the media was removed and replaced with 160 μL of 2-propanol. Absorbance was read at 570 nm using a Synergy 2 Multi-Mode Reader (Biotek, Winooski, VT, USA). Cytotoxicity was evaluated by presenting the CC50 (the concentration of the drug that reduces cell viability by 50%) interval or by determining the CC50 value through nonlinear regression analysis using GraphPad Prism version 8.1.1 for Windows (GraphPad Software, San Diego, CA, USA). Results represent the average of at least three independent experiments.

[2] = test system: Trypanosoma brucei brucei L427 wild-type (WT) bloodstream forms; test: Activity against T. brucei (resazurin-based assay); type: cell-based; conditions: Trypanosoma brucei; for inhibition at 10 µM: read-out: T. brucei % cell growth inhibition
Method: The parasites were grown in 5 mL T25 ventilated flasks containing complete HMI-9 medium. The medium was supplemented with 10% heat-inactivated FBS and 100 IU/mL penicillin/streptomycin. To maintain the cultures, subpassages were performed every 2 days at a concentration of 1 × 10^4 cells/mL.
The efficacy of the compounds against Trypanosoma brucei brucei L427 wild-type (WT) bloodstream forms was assessed using a resazurin-based assay as described elsewhere. T. b. brucei L427 bloodstream forms were prepared at a cell density of 5 × 10^3 cells/mL in supplemented complete medium. Serial dilutions of the test compounds were prepared in a final volume of 100 μL, and 100 μL of the parasite suspension was added to each well containing the compound dilutions, resulting in a total volume of 200 μL per well. A dose–response curve for pentamidine was included as a quality control in each assay, and each condition was tested in duplicate. The plates were incubated for 72 h under the specified conditions for the parasite. After the incubation period, 20 μL of a 0.5 mM resazurin solution was added to each well, and the plates were incubated for an additional 4 h under the same conditions. Fluorescence was measured at an excitation wavelength of 544 nm and an emission wavelength of 590 nm using a Synergy 2 Multi-Mode Reader (Biotek, Winooski, VT, USA). The results were expressed as the percentage of parasite growth inhibition compared to the control (untreated parasites) and represented the average of at least three independent experiments.

[3] = lower limit of CC50 interval, read-out: THP1 CC50 lower limit
[4] = upper limit of CC50 interval, read-out: THP1 CC50 upper limit
[5] = read-out: 95% confidence interval for EC50 (T. brucei)
[6] = read-out: T. brucei EC50 (converted)
[7] = cytotoxic concentration for THP1 cells, read-out: CC50 THP1

| Structure (SMILES) | inhibition at 50 µM (LmPTR1) [%] | CC50 at 72 h [1, 3] [µM] | CC50 at 72 h [1, 4] [µM] | inhibition at 10 µM ([2]; at 10 μM) [%] | EC50 [2, 5] [µM] | EC50 [2, 6] [µM] | IC50 (LmPTR1) | CC50 at 72 h [1, 7] [µM] | inhibition at 10 µM [2] [%] |
| --- | --- | --- | --- | --- | --- | --- | --- | --- | --- |
| Nc1nc2ccc(C(=O)NCCc3ccc(Cl)c(Cl)c3)cc2s1 [Compound 1a, 2-amino-N-(3,4-dichlorophenethyl)benzo[d]thiazole-6-carboxamide] | 21 ± 2 | > 50 | < 100 | 100 | 2.83 to 3.37 | 3.1 |  |  |  |
| Nc1nc2ccc(C(=O)N(CCc3ccc(Cl)c(Cl)c3)C3CC3)cc2s1 [Compound 1b, 2-amino-N-cyclopropyl-N-(3,4-dichlorophenethyl)benzo[d]thiazole-6-carboxamide] | 72 ± 4 | > 25 | < 50 | 97 | 4.45 to 5.88 | 5 | 39 µM and 38.9 µM | 25 to 50 |  |
| Nc1nc2ccc(C(=O)N(Cc3ccc(Cl)c(Cl)c3)C3CC3)cc2s1 [Compound 1c, 2-amino-N-cyclopropyl-N-(3,4-dichlorobenzyl)benzo[d]thiazole-6-carboxamide] | 26 ± 5 |  |  | 18 ± 8 |  |  |  | > 100 |  |
| Nc1nc2ccc(CN(Cc3ccc(Cl)c(Cl)c3)C3CC3)cc2s1 [Compound 1d, 6-((cyclopropyl(3,4-dichlorobenzyl)amino)methyl)benzo[_d_]thiazol-2-amine] | 38 ± 4 | > 25 | < 50 | 59 ± 2 |  |  |  | 25 to 50 |  |
| Nc1nc2ccc(C(=O)N(CCc3ccc(Cl)c(Cl)c3)c3ccccc3)cc2s1 [Compound 1e, 2-amino-N-(3,4-dichlorophenethyl)-N-phenylbenzo[d]thiazole-6-carboxamide] | 31 ± 2 |  |  | 31 |  |  |  | > 100 |  |
| Nc1nc2ccc(C(=O)NCCc3ccccc3)cc2s1 [Compound 2a, 2-amino-N-phenethylbenzo[d]thiazole-6-carboxamide] | 35 ± 1 |  |  | 27 |  |  |  | > 100 |  |
| Nc1nc2ccc(C(=O)NCCc3cccc(Cl)c3)cc2s1 [Compound 2b, 2-amino-N-(3-chlorophenethyl)benzo[d]thiazole-6-carboxamide] | 48 ± 2 | > 50 | < 100 |  |  |  | 91.4 µM |  | 51 |
| Nc1nc2ccc(C(=O)NCCc3ccc(Cl)cc3)cc2s1 [Compound 2c, 2-amino-N-(4-chlorophenethyl)benzo[d]thiazole-6-carboxamide] | 32 ± 2 | > 50 | < 100 | 27 |  |  |  |  |  |
| Nc1nc2ccc(C(=O)NCCc3cccc(Br)c3)cc2s1 [Compound 2d, 2-amino-N-(3-bromophenethyl)benzo[d]thiazole-6-carboxamide] | 57 ± 2 | > 50 | < 100 | 39 ± 5 |  |  |  |  |  |
| Nc1nc2ccc(C(=O)NCCc3ccc(Br)cc3)cc2s1 [Compound 2e, 2-amino-N-(4-bromophenethyl)benzo[d]thiazole-6-carboxamide] | 33 ± 1 | > 25 | < 50 | 37 |  |  | 78.8 µM |  |  |
| Nc1nc2ccccc2n1Cc1ccc(Cl)c(Cl)c1 [I, 1-(3,4-dichlorobenzyl)-1H-benzimidazol-2-amine, reference compound] | 75 ± 1 |  |  | < 0 |  |  |  | 8 |  |
